# In patent publication US20140243239A1, “MULTIPLEXED KINASE INHIBITOR BEADS AND USES THEREOF” (University of North Carolina at Chapel Hill, priority 2011, published 2014):
# How the values were obtained:
# c-Myc = c-Myc protein and RNA levels in SUM159 cells (western blot, qRT-PCR); assay type: cell-based, human
# Description: (§1) Western blotting and RTK arrays: Western blotting and RTK array analysis were performed as previously described (Amin et al., 2010). Amin et al. 2010 Sci Transl Med 2, 16ra17. Detailed methods and antibodies are provided in Supplemental Experimental Procedures.
# qRT-PCR: Total RNA was isolated from human breast cancer cell lines or murine tumors using the RNeasy® Plus Mini Kit (Qiagen). Real-time RT-PCR was performed on diluted cDNA using the Applied Biosystems 7500 Fast Real-Time PCR System (standard program) and inventoried TaqMan® Gene Expression Assays. Each cDNA sample was assayed in triplicate. Fold change with respect to the calibrator represents the average of the triplicate values, with error bars representing the range of the mean (95% confidence).
# (§2) Western blotting: Proteins from cell lysates were separated by SDS-PAGE chromatography, transferred to nitrocellulose membranes, and probed with the indicated primary antibodies. Antibodies recognizing pAKT (S473), pAKT (T308), AURA, pAXL (Y702), AXL, c-Myc, DDR1, EGFR, pERK1/2 (T202/Y204), pHER3 (Y1197), MAX, pMEK1/2 (S217/S221), MEK1/2, MKP3, pP70S6K (T389), pPDGFRβ (Y751), pPDGFRβ (Y1009), pPDGFR (Y857), PDGFRβ, pRAF (S338), pRSK1 (T359/S363), pVEGFR2 (Y1175), VEGFR2 were obtained from Cell Signaling Technology. Antibodies for Cyclin A2, Cyclin B1, Cyclin D1, ERK2, RAF, and pRAF (S259) were obtained from Santa Cruz Biotechnology. The antibody recognizing Bim was obtained from Chemicon. The antibody recognizing p-c-Myc (S62) was obtained from Abeam. Secondary HRP-anti-rabbit and HRP-anti-goat secondary antibodies were from Jackson Immunoresearch Laboratories and Santa Cruz Biotechnology, respectively. Western blots were visualized by incubation with SuperSignal West Pico Chemiluminescent Substrate (Thermo Scientific).
# ERK1/2 [1] = experiment: Western blot of MEK/ERK signaling in SUM159 cells; assay type: cell-based, human; details: BEZ235 (FIG. 10F)
# From the text: (§3) Detailed methods and antibodies are provided in Supplemental Experimental Procedures.
# as §2
# SUM159 cells = experiment: SUM159 cell growth (Cell-Titer Glo, cell counts); assay type: cell-based, human; details: for SUM159 cell growth inhibition in combination with AZD6244 / SUM159 cell growth inhibition, RTK inhibitor as single agent: Cell-Titer Glo (FIG. 5C, 5D)
# Description: (§4) Cell Culture: MDA-MB-231 cells were grown in DMEM/F12 supplemented with 10% FBS. SUM-159 cells were grown in DMEM/F12 supplemented with 10% FBS 1 μg/mL hydrocortisone, and 5 μg/mL insulin. SUM159-R cells were continually grown in the presence of 5 μM AZD6244. For SILAC labeling, cells were grown for five doublings in arginine- and lysine-depleted media (as above) supplemented with either unlabeled L-arginine (42 mg/L) and L-lysine (71 mg/L) or equimolar amounts of heavy isotope labeled [13C6,15N4]arginine (Arg10) and [13C6]lysine (Lys6) (Cambridge Isotope Laboratories). Proliferation was quantified using Cell-Titer Glo Luminescent Cell Viability Assay (Promega). Fresh media containing DMSO or kinase inhibitors was added daily and experiments were performed in triplicate.
# RTKs [2] = experiment: RTK tyrosine phosphorylation/expression in SUM159 cells (RTK arrays, western blot); assay type: cell-based, human
# Description: as §1, §2
# RTK arrays: Cells were harvested in RTK array lysis buffer containing 20 mM Tris-HCl (pH 8.0), 1% NP-40, 10% glycerol, 137 mM NaCl, 2 mM EDTA, 1×EDTA-free protease inhibitor cocktail (Roche), and 1% each of phosphatase inhibitor cocktails 1 and 2 (Sigma). After incubating on ice for 20 minutes, cell debris was pelleted at 4° C. Lysates (500 μg protein) were applied to R&D Systems Proteome Profiler™ Human Phospho-RTK antibody arrays. Washing and secondary antibody steps were performed according to the manufacturer“s instructions. RTK arrays were visualized by SuperSignal West Pico Chemiluminescent Substrate (Thermo Scientific).
# p70 S6 kinase [3] = experiment: p70 S6 kinase activity in SUM159 cells; assay type: cell-based, human; details: BEZ235 (FIG. 10F)
# From the text: as §3, §2
# p70 S6 kinase [4] = experiment: p70 S6 kinase activity in HPAC pancreatic cancer cells; assay type: cell-based
# Description: (§5) Kinome reprogramming in pancreatic cancer—cell type and inhibitor specific. The kinome response to drug in 3 pancreatic cancer cell lines (HPAC, AsPC-1, HPAF-II) was also evaluated using 3 kinase inhibitors that are currently in Phase I/II clinical trials: BKM120 (Novartis), an oral pan-class 1 PI3K inhibitor, […] (Glaxo Smith-Kline), an ATP competitive PI3K/mTOR inhibitor, and GSK1120212, a reversible allosteric inhibitor of MEK1/2 (Glaxo Smith-Kline). The kinome response for GSK2126458 and GSK1120212 was compared using MIB/MS and RTK arrays to determine if kinome reprogramming was inhibitor-specific. […] Thus, kinome reprogramming is target-specific.
# [5] = tested on: ALK, RET, INSR and IGF-1R; experiment: RTK phosphorylation in pancreatic cancer cells (RTK arrays); assay type: cell-based
# Description: as §5
# Kinome reprogramming in pancreatic cancer cell lines: HPAC, AsPC-1, HPAF-II cell lines were treated with either GSK1120212, GSK2126458, BKM120 or vehicle control and harvested at […]. Normalized spot intensity of RTK arrays were measured and activated and repressed RTK were determined in response to either GSK1120212 or GSK2126458 4 h and 72 h after treatment.
# MDA-MB-231 cells = experiment: MDA-MB-231 cell growth (Cell-Titer Glo); assay type: cell-based, human; details: for MDA-MB-231 cell growth in combination with AZD6244: combination with AZD6244 (FIG. 12C, 12D, 12G)
# Description: as §4
# RTKs [6] = experiment: RTK expression in SUM159-R cells (western blot, qRT-PCR); assay type: cell-based, human; details: 10 nM bortezomib, 24 h
# Description: as §3
# (§6) Generation of AZD6244 resistant SUM159 cells: SUM159 cells were cultured in DMEM/F12 supplemented with 10% FBS media containing 5 μM AZD6244. Media was changed every 2 days, maintaining inhibitor concentrations of 5 μM AZD6244.
# ERK = experiment: MEK/ERK activation in C3Tag tumors (western blot); assay type: in vivo, mouse; details: AZD6244 20 mg/kg 28 days; sorafenib 30 mg/kg 26 days
# Description: (§7) Treatment began the same day. Tumor size was assessed twice weekly by caliper measurements of tumor areas ((width)2×length))/2 for 21 days. […] Drugs were incorporated into the diet of mice to achieve a daily dose of AZD6244 20 mg/kg and sorafenib 30 mg/kg. […] Tumors at harvest were cut in half and either snap-frozen in liquid nitrogen and stored at −80° C. or placed in neutral buffered 10% formalin solution.
# as §2, with “Western blots were visualized by incubation with SuperSignal West Pico Chemiluminescent Substrate (Thermo Scientific).” left out
# C3Tag tumors = experiment: In vivo tumorigenesis experiment, C3Tag TNBC GEMM (tumor volume); parameters: species or system mouse; details: C3Tag mice, 21 days, sorafenib 30 mg/kg in diet
# Description: In vivo tumorigenesis experiments: Animal handling and procedures were approved by the University of North Carolina at Chapel Hill Institutional Animal Care and Use Committee and followed the NIH guidelines. Male C3Tag mice were bred with wild type females to produce experimental offspring. Mice were examined for tumors weekly until a palpable mass was found. Treatment began the same day. Tumor size was assessed twice weekly by caliper measurements of tumor areas ((width)2×length))/2 for 21 days. Percent change of tumor volume was calculated using (Final volume−Initial Volume)/Initial Volume and graphed using R (http://www.r-project.org/). Drugs were incorporated into the diet of mice to achieve a daily dose of AZD6244 20 mg/kg and sorafenib 30 mg/kg. Food was provided ab libitum and the amount of daily food intake was pre-determined using Jackson Labs Phenome Database. Tumors at harvest were cut in half and either snap-frozen in liquid nitrogen and stored at −80° C. or placed in neutral buffered 10% formalin solution.
# SUM159-R cells = experiment: Growth of AZD6244-resistant SUM159-R cells; assay type: cell-based, human; details: 250 nM sorafenib, 72 h, cells grown in 5 μM AZD6244
# Description: as §4, §6
# [7] = tested on: kinome (kinase binding to MIBs) of C3Tag tumors; experiment: MIB/MS kinome profile of C3Tag tumors; assay type: in vivo, mouse; details: sorafenib 30 mg/kg, 26 days
# From the text: Multiplexed inhibitor bead affinity chromatography: Cells and tumors were lysed and harvested as previously described (Oppermann et al., 2009). Oppermann et al., 2009 Mol Cell Proteo 8 1751-1764. Briefly, lysates were brought to 1 M NaCl and passed through columns of washed inhibitor-conjugated beads (bisindoylmaleimide-X, SB203580, lapatinib, dasatinib, purvalanol B, VI16832, PP58) to isolate protein kinases from the lysates (see Supplemental Experimental Procedures for MIBs preparation). Kinase-bound inhibitor beads were washed with high-salt buffer and 0.1% SDS before elution in 0.5% SDS solution in high heat. Proteins were purified using chloroform/methanol extraction, resuspended in 50 mM ammonium bicarbonate (pH 8.0) or 50 mM HEPES (pH 8.0) for SILAC or iTRAQ respectfully. […]
# LC-MS/MS analysis: MS and MS/MS data were acquired using a MALDI TOF/TOF 5800 (AB SCIEX). Peptides were analyzed using ProteinPilot Software Version 3.0 (AB SCIEX) and identification using UniProtKB/Swiss-Prot database (release Oct. 15, 2009). […] ProteinPilot software 3.0 identified and quantified changes in kinase binding to MIBs utilizing the Pro Group Algorithm. […]
# Treatment began the same day. Tumor size was assessed twice weekly by caliper measurements of tumor areas ((width)2×length))/2 for 21 days. […]
# RTKs [8] = experiment: RTK expression in C3Tag tumors (western blot); assay type: in vivo, mouse; details: AZD6244 20 mg/kg 28 days; sorafenib 30 mg/kg 26 days
# Description: as §7, §2
# ERK1/2 [9] = experiment: ERK activity in SUM159-R cells (western blot); assay type: cell-based, human; details: sorafenib (250 nM) added to 5 μM AZD6244
# Description: as §3, §6, §2
structure (smiles),measurement,setting,value
Cn1c(=O)n(-c2ccc(C(C)(C)C#N)cc2)c2c3cc(-c4cnc5ccccc5c4)ccc3ncc21 [BEZ235],c-Myc expression,c-Myc; BEZ235 100 nM (FIG. 11C),does not change
same,effect on the ERK pathway,ERK1/2 [1],little effect
same,growth of SUM159 cells,SUM159 cells; BEZ235 50 nM,strongly growth arrests
same,RTK phosphorylation profile,"RTKs [2]; 5 μM AZD6244, 50 nM BEZ235 (FIG. 3H)",did not change the RTK phosphorylation profile except for an increase in phospho-AXL
same,p70 S6 kinase activity,p70 S6 kinase [3],inhibits p70 S6 kinase activity
COc1ncc(-c2ccc3nccc(-c4ccnnc4)c3c2)cc1NS(=O)(=O)c1ccc(F)cc1F [GSK2126458],p70 S6 kinase activity,p70 S6 kinase [4],inhibited p70 S6 kinase activity
same,"ALK, RET, INSR and IGF-1R phosphorylation",[5],"induced ALK, RET, INSR and IGF-1R phosphorylation"
CCCS(=O)(=O)Nc1ccc(F)c(C(=O)c2c[nH]c3ncc(Cl)cc23)c1F [PLX4720],"growth of SUM159 cells, RAF inhibitor in combination with AZD6244",SUM159 cells; cotreatment 72 h (FIG. 12F),stimulated the growth
N#CC(=C(/N)Sc1ccccc1N)/C(C#N)=C(\N)Sc1ccccc1N [U0126],growth of SUM159 cells,SUM159 cells; 5 μM MEK inhibitor (FIG. 2A),inhibited growth
same,growth of MDA-MB-231 cells,MDA-MB-231 cells; 5 μM MEK inhibitor (FIG. 9A),inhibited growth
CC(C)C[C@H](NC(=O)[C@H](Cc1ccccc1)NC(=O)c1cnccn1)B(O)O [bortezomib],AZD6244-induced c-Myc degradation,"c-Myc; bortezomib with 5 μM AZD6244, 24 h",prevented AZD6244-induced c-Myc degradation
same,RTK expression in SUM159-R cells,RTKs [6],readily reversed RTK expression
same,AZD6244-dependent upregulation of RTKs,"RTKs [2]; bortezomib 3, 10 or 20 nM with 5 μM AZD6244, 24 h",inhibited upregulation of RTKs
COc1cc2c(Oc3ccc(NC(=O)C4(C(=O)Nc5ccc(F)cc5)CC4)cc3F)ccnc2cc1OCCCN1CCOCC1 [foretinib],SUM159 cell growth inhibition in combination with AZD6244,SUM159 cells,synergistic
same,"SUM159 cell growth inhibition, RTK inhibitor as single agent",SUM159 cells,ineffective as single agents
same,MDA-MB-231 cell growth in combination with AZD6244,MDA-MB-231 cells,little effect
CNC(=O)c1cc(Oc2ccc(NC(=O)Nc3ccc(Cl)c(C(F)(F)F)c3)cc2)ccn1 [sorafenib],tumor MEK and ERK compared to untreated animals,ERK,strongly activated
same,effect on tumor progression,C3Tag tumors,no effect
same,SUM159 cell growth inhibition in combination with AZD6244,SUM159 cells,synergistic
same,"SUM159 cell growth inhibition, RTK inhibitor as single agent",SUM159 cells,ineffective as single agents
same,"growth of SUM159 cells, sorafenib at the highest dose tested in combination with AZD6244","SUM159 cells; highest dose tested, 72 h",synergistically inhibited growth
same,"SUM159 proliferation, sorafenib at low doses in combination with AZD6244","SUM159 cells; low doses, 72 h",did not significantly stimulate proliferation
same,Tyr phosphorylation of RTKs induced by AZD6244,"RTKs [2]; RTK arrays, 72 h, with AZD6244",inhibited Tyr phosphorylation of multiple RTKs
same,MDA-MB-231 cell growth in combination with AZD6244,MDA-MB-231 cells,synergizes
same,"growth of SUM159-R cells, cell counts",SUM159-R cells,Inhibited cell growth
same,"MIB binding of BRAF, PDGFRβ, CSF1R, DDR1, DDR2, KIT, MLTK and FRK",[7],decreased MIB binding
same,expression of RTKs in C3Tag tumors versus untreated,RTKs [8],do not alter RTK expression
same,ERK activity in SUM159-R cells,ERK1/2 [9],inhibited ERK activity
